In assay [1] the test system is Chlorella sorokiniana. In words: Cell count of Chlorella sorokiniana under salinity stress with LiCl. In kind it is cell-based. As to conditions: for Cell Density at Day 0: Day 0, day of salinity exposure (baseline); for Cell Density at Day 4: Day 4 of salinity stress. The procedure:
5mM LiCl was added to the TAP medium in the Experimental plates, but not in the Control. […]
Thus, it can be concluded that even in environmental stress conditions like exposure to salinity, treatment of the algal cells with LiCl prevents cll death, increases the biomass and lipid content of the algal cells, and concomitantly yields an increased amount of commercially valuable products like oils which are known to be produced by the algal cells.

The test system of assay [2] is Chlorella sorokiniana. The assay can be described thus: Recovery of Chlorella sorokiniana cultures after UV exposure with z-vad-fmk. In kind it is cell-based. The procedure: 1×10^6 cells/ml of Chlorella sorokiniana were grown for three days in Tris-Acetate-Phosphate (TAP) medium and then exposed to UV at 250000 μJ/cm^2 for one minute using CL-1000 UV crosslinker. Immediately after UV exposure, 25 μM Z-vad-fmk was added to the TAP medium. The cultures were kept in the dark for 24 hours. Cultures were then exposed to light of 2000 lux for 12 hours followed by 12 hours of darkness.
FIG. 1B graphically represents the optical density at 750 nm of the Control cultures versus the optical density of the cultures treated with z-vad-fmk on the 13th day after UV exposure. From these figures it is clear that z-vad-fmk induced autophagy in the Chlorella sorokiniana cells helping the cells to recover from UV exposure. […] Thus, it can be concluded that even in environmental stress conditions like exposure to UV, treatment of the algal cells with z-vad-fmk prevents cell death, increases the biomass and lipid content of the algal cells, and concomitantly yields an increased amount of commercially valuable products like oils which are known to be produced by the algal cells.

The mark [3] stands for this setting: TAP + 0.6% Salinity + 5 mM LiCl.
Where [4] appears, read: TAP + 1.2% Salinity + 5 mM LiCl.

Where a SMILES comes first, the peptide text is derived from it. The star is where a group is joined. Cbz = O=C(OCc1ccccc1)*; CH2F = FC*

For `[Cl-].[Li+]` [LiCl], the “Cell counts versus Control after salinity stress (FIG. 2)” value with Chlorella sorokiniana [1] (5 mM LiCl, after 4 days of salinity stress exposure) is recorded as “higher cell counts”. Besides, in the assay with Chlorella sorokiniana [1] (setting [3]), the “Cell Density at Day 0” value is listed as 2.6 × 10^6 cells/ml and the “Cell Density at Day 4” value is given as 6.57 × 10^6 cells/ml. Moreover, in the assay on Chlorella sorokiniana [1] (setting [4]), the “Cell Density at Day 0” value was 2.6 × 10^6 cells/ml and the “Cell Density at Day 4” value is 7.22 × 10^6 cells/ml.
For the molecule `COC(=O)C[C@H](NC(=O)[C@H](C)NC(=O)[C@@H](NC(=O)OCc1ccccc1)C(C)C)C(=O)CF` [z-vad-fmk] (Cbz-Val-Ala-Asp(OMe)-CH2F), the “Revival of bleached cultures after UV exposure” value with Chlorella sorokiniana [2] (25 μM added to TAP medium immediately after UV 250000 μJ/cm^2 for one minute, 10 days) is on record as “only z-vad-fmk treated cultures were seen to revive after 10 days”. For the same molecule, in the assay with Chlorella sorokiniana [2] (25 μM, 13 days after UV exposure, versus Control plates), the “Culture viability (plates, FIG. 1A) after UV exposure” value is listed as “only the z-vad-fmk treated plates show viable cultures”.

(Values after patent US20160369307A1, “METHOD OF INCREASING BIOMASS AND LIPID CONTENT IN A MICRO-ORGANISM AND A GENETICALLY MODIFIED MICRO-ORGANISM EXHIBITING ENHANCED AUTOPHAGY” (RELIANCE INDUSTRIES LIMITED, priority 2014, published 2016).)
